Results from patent US8242280B2, “Fused ring heterocycle kinase modulators” (SGX Pharmaceuticals, Inc., priority 2007, dated 2012).

What was measured:
Ba/F3 cells, ABL1 T315I = Ba/F3 cells, ABL1 T315I (Homo sapiens, UniProt P00519, T315I, cells depend on it); test: 96-well XTT cell survival assay, Ba/F3 ABL1 T315I; assay type: cell-based; settings: 72 hours, read-out: ABL1 T315I XTT [Ba/F3] IC50
Method: (§1) MV4-11 and THP cells were maintained in Iscove's Modified Dulbecco's Medium supplemented with 10% fetal bovine serum (FBS) and penicillin/streptomycin, Ba/F3 cells were maintained in RPMI 1640 supplemented with 10% FBS, penicillin/streptomycin and 5 ng/ml recombinant mouse IL-3.
(§2) Compounds were tested in the following assays in duplicate.
(§3) 96-well XTT assay: Cells (e.g. BaF3 315I, M351I, or E255K cells) were grown in growth media containing various concentrations of compounds (duplicates) on a 96-well plate for 72 hours at 37° C. The starting cell number was 5000-8000 cells per well and volume was 120 μl. At the end of the 72-hour incubation, 40 μl of XTT labeling mixture (50:1 solution of sodium 3′-[1-(phenylamino-carbonyl)-3,4-tetrazolium]-bis(4-methoxy-6-nitro)benzene sulfonic acid hydrate and Electron-coupling reagent: PMS (N-methyl dibenzopyrazine methyl sulfate) were added to each well of the plate. After an additional 2-6 hours of incubation at 37° C., the absorbance reading at 405 nm with background correction at 650 nm was measured with a spectrophotometer.

Ba/F3 cells, ABL1 WT = Ba/F3 cells, ABL1 WT (Homo sapiens, UniProt P00519); test: 96-well XTT cell survival assay, Ba/F3 ABL1 WT; assay type: cell-based; settings: 72 hours, read-out: ABL1 WT XTT [Ba/F3] IC50
Method: as §1, §2, §3

[1] = biological target: T1, unphosphorylated T315I Abl kinase domain (Mus musculus, UniProt P00520, T315I); test: c-Abl T315I 0P bioassay (pyruvate kinase/lactate dehydrogenase coupled enzyme assay); assay type: biochemical; settings: zero phosphorylation state (0P), 10 μM ATP, read-out: AbI T315I 0P IC50
T1 construct: purified and unphosphorylated T315I Abl kinase domain; made in house; host or cells: E. coli BL21(DE3) (Codon+RIL or pSA0145 strain)
T1 sequence (P00520 242-493 T315I limits assumed): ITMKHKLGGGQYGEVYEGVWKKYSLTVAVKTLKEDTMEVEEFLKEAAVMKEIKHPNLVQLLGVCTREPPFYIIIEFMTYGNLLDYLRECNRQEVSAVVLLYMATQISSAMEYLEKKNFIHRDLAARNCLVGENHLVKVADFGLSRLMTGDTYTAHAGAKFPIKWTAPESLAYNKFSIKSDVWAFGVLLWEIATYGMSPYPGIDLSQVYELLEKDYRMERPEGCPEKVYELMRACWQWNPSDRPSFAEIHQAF
Source text: Although the first of these examples uses the kinase domain of a mutant form of Abl T315I (“Abl T315I KD”), the kinase assays may use various forms of mutant and wild type enzymes, including, for example, the entire protein, the kinase domain, or a portion thereof (e.g. Abl Y393F). The kinases used in the assays may also be of varying phosphorylation states. In the c-Abl example, a mutant kinase at a zero phosphorylation state was used. c-Abl Pyruvate Kinase/Lactate Dehydrogenase Coupled Enzyme Assay
In the c-Abl Pyruvate Kinase (PK)/Lactate Dehydrogenase (LDH) Coupled Assay the protein kinase dependant phosphorylation of a substrate peptide was coupled to the oxidation of NADH. The oxidation of NADH to NAD+ was detected by monitoring a decrease in absorbance at 340 nm.
Materials: Abl substrate peptide=EAIYAAPFAKKK (SEQ ID NO: 1)—OH (Biopeptide, San Diego, Calif.); pNADH (Sigma Cat#N-8129, FW=709.4); 2M MgC12; 1M HEPES buffer, pH 7.5; Phosphoenolpyruvate (PEP) (Sigma Cat#P-7002, FW=234); Lactate dehydrogenase (LDH) (Worthington Biochemical Cat#2756); Pyruvate Kinase (PK) (Sigma Cat#P-9136); ATP (Sigma Cat#A-3377, FW=551); Greiner 384-well UV star plate; and purified and unphosphorylated T315I Abl kinase domain.
Stock Solutions: 10 mM NADH (7.09 mg/ml in miliQH2O) made fresh daily; 10 mM Abl substrate peptide (13.4 mg/ml in miliQH2O) stored at −20° C.; 100 mM HEPES buffer, pH 7.5 (5 ml 1M stock+45 ml miliQH2O); 100 mM MgCl2 (5 ml 2M MgCl2+95 ml dH2O); 100 MM PEP (23.4 mg/ml in dH2O) stored at −20° C.; 10 mM ATP (5.51 mg/ml in dH2O) stored at −20° C. (diluted 50 μl into total of 10 ml miliQH2O daily=50 μM ATP working stock); 1000 U/ml PK (U/mg varies with lot) flash-frozen under liquid N2 and stored at −80° C.; and 1000 U/ml LDH (U/mg varies with lot) flash-frozen under liquid N2 and stored at −80° C.
Standard Assay Setup for 384-well format (50 μl reaction): 300 μM NADH; 10 mM MgCl2; 2 mM PEP; 45U/ml PK; 60 U/ml LDH; 200 μM Abl substrate peptide; 2.5 μl test compound (in DMSO); 2 μg/ml Abl kinase domain; 10 μM ATP; 100 mM HEPES buffer. Positive controls contained DMSO with no test compound. Negative controls contained 5 μl of 0.5M EDTA (50 mM in the assay). The dephosphorylated form of the c-Abl T315I mutant was used in the biochemical screening assays. The kinase reaction was initiated at time t=0 by the addition of ATP.
Activity was measured by following the time-dependent loss of NADH by absorbance spectroscopy at 340 nm. The linear portion of the resulting progress curve was then analyzed by linear regression to get the activity in absorbance units/time, reported as the slope of that best fit line (moles/unit time can be calculated from using molar extinction coefficient for NADH at 340 nm, 6250M^−1 cm^−1).
Data was evaluated using the equation: Z′=1−[3*(σ++σ−)/|μ+−μ−|](Zhang, et al., 1999 J Biomol Screening 4(2) 67-73), where μ denotes the mean and σ the standard deviation. The subscript designates positive or negative controls. The Z′ score for a robust screening assay should be ≧0.50. The typical threshold=μ+−3*σ+. Any value that falls below the threshold was designated a “hit”.
Dose response was analyzed using the equation: y=min+{(max−min)/(1+10^[compound]−logIC50)}, where y is the observed initial slope, max=the slope in the absence of inhibitor, min=the slope at infinite inhibitor, and the IC50 is the [compound] that corresponds to ½ the total observed amplitude (Amplitude=max−min).
To measure modulation, activation, or inhibition of Abl KD, a test compound was added to the assay at a range of concentrations. Inhibitors may inhibit Abl KD activity at an IC50 in the micromolar range, the nanomolar range, or, for example, in the subnanomolar range.
An open-reading frame for c-Abl was amplified from a Mus musculus (mouse) cDNA library prepared from freshly harvested mouse liver using a commercially available kit (invitrogen) by PCR using the following primers: […]
The c-Abl T315I KD (kinase domain) was purified as follows. […]

IC50 [1]	Compound	GI50 (Ba/F3 cells, ABL1 T315I)	GI50 (Ba/F3 cells, ABL1 WT)
< 50 nM	COc1ccccc1-c1c[nH]c2ncc(-c3cccc(C4(C)NC(=O)NC4=O)c3)cc12 (stereo not drawn)	> 1000 nM	< 1000 nM
< 50 nM	COc1ccccc1-c1c[nH]c2ncc(-c3cccc(C(C(=O)N(C)CCN(C)C)N4CCNCC4)c3)cc12 (stereo not drawn)	> 1000 nM	> 1000 nM
< 50 nM	COc1ccccc1-c1c[nH]c2ncc(-c3cccc(C(C(=O)N4CCC[C@@H]4CO)N4CCNCC4)c3)cc12 (stereo partly drawn)	> 1000 nM	> 1000 nM
< 50 nM	COc1ccccc1-c1n[nH]c2ncc(-c3cccc(C(O)c4ncccc4F)c3)cc12 (stereo not drawn)	< 1000 nM	< 1000 nM
< 50 nM	COc1ccccc1-c1n[nH]c2ncc(-c3cccc(C(O)c4ncccc4C(F)(F)F)c3)cc12 (stereo not drawn)	> 1000 nM	> 1000 nM
< 50 nM	COc1ccccc1-c1c[nH]c2ncc(-c3cccc(C(O)c4ccccn4)c3)cc12 (stereo not drawn)	< 1000 nM	< 1000 nM
< 50 nM	COc1ccccc1-c1n[nH]c2ncc(-c3cccc(C(O)c4ccccn4)c3)cc12 (stereo not drawn)	> 1000 nM	< 1000 nM
< 50 nM	CNC(C(=O)N(C)C)c1cccc(-c2cnc3[nH]nc(-c4ccccc4OC)c3c2)c1 (stereo not drawn)	> 1000 nM	> 1000 nM
< 50 nM	CNC(C(=O)N(C)CCN(C)C)c1cccc(-c2cnc3[nH]nc(-c4ccccc4OC)c3c2)c1 (stereo not drawn)	> 1000 nM	> 1000 nM
< 50 nM	CNC(C(=O)N1CCC(N(C)C)C1)c1cccc(-c2cnc3[nH]nc(-c4ccccc4OC)c3c2)c1 (stereo not drawn)	> 1000 nM	> 1000 nM
< 50 nM	CNC(C(=O)N(C)C(C)C)c1cccc(-c2cnc3[nH]nc(-c4ccccc4OC)c3c2)c1 (stereo not drawn)	> 1000 nM	> 1000 nM
< 50 nM	COc1ccccc1-c1c[nH]c2ncc(-c3cccc(C(O)C(=O)N(C)CC4CCCO4)c3)cc12 (stereo not drawn)	< 1000 nM	< 1000 nM
< 50 nM	COc1ccccc1-c1c[nH]c2ncc(-c3cccc(C(O)C(=O)N(C)CC4CCN(C)CC4)c3)cc12 (stereo not drawn)	< 1000 nM	< 1000 nM
< 50 nM	COc1ccccc1-c1c[nH]c2ncc(-c3cncc(C(O)C(=O)N(C)Cc4ccncc4)c3)cc12 (stereo not drawn)	> 1000 nM	> 1000 nM
< 50 nM	COc1ccccc1-c1c[nH]c2ncc(-c3cccc(C(O)C(=O)N(C)CC4CCOCC4)c3)cc12 (stereo not drawn)	< 1000 nM	< 1000 nM
< 50 nM	COc1ccccc1-c1n[nH]c2ncc(-c3cccc([C@H](O)[C@@H](O)C(C)C)c3)cc12	< 1000 nM	< 1000 nM
< 50 nM	CC[C@H](O)[C@@H](O)c1cccc(-c2cnc3[nH]nc(-c4ccccc4OC)c3c2)c1	< 1000 nM	< 1000 nM
< 50 nM	COc1ccccc1-c1n[nH]c2ncc(-c3cccc([C@H]4OCO[C@@H]4C(C)C)c3)cc12	> 1000 nM	> 1000 nM
< 50 nM	COc1ccccc1-c1n[nH]c2ncc(-c3cccc([C@@H]4OCO[C@@H]4C(C)C)c3)cc12	> 1000 nM	> 1000 nM
< 50 nM	COc1ccccc1-c1c[nH]c2ncc(-c3cccc(C(O)C(=O)N(C)Cc4ccnn4C)c3)cc12 (stereo not drawn)	< 1000 nM	< 1000 nM

More lines, now with the values behind:

Compound	IC50 [1]	GI50 (Ba/F3 cells, ABL1 T315I)	GI50 (Ba/F3 cells, ABL1 WT)
COc1ccccc1-c1c[nH]c2ncc(-c3cccc(C(O)C(=O)N(C)C4CCOCC4)c3)cc12 (stereo not drawn)	< 50 nM	< 1000 nM	< 1000 nM
COc1ccccc1-c1c[nH]c2ncc(-c3cccc(C(O)c4ncccc4C(F)(F)F)c3)cc12 (stereo not drawn)	< 50 nM	> 1000 nM	> 1000 nM
COc1ccccc1-c1n[nH]c2ncc(-c3cccc(C(C(=O)N4CCC(N(C)C)C4)N(C)C)c3)cc12 (stereo not drawn)	50 to 500 nM	> 1000 nM	> 1000 nM
COc1ccccc1-c1n[nH]c2ncc(-c3cccc(C(C(=O)N(C)CCN(C)C)N(C)C)c3)cc12 (stereo not drawn)	50 to 500 nM	> 1000 nM	> 1000 nM
COc1ccccc1-c1c[nH]c2ncc(-c3cccc(C(O)C(=O)N(C)C[C@@H](O)CO)c3)cc12 (stereo partly drawn)	< 50 nM	< 1000 nM	< 1000 nM
COc1ccccc1-c1n[nH]c2ncc(-c3cccc(C(O)c4nccn4C)c3)cc12 (stereo not drawn)	< 50 nM	> 1000 nM	< 1000 nM
COc1ccccc1-c1c[nH]c2ncc(-c3cccc(C(O)c4nccn4C)c3)cc12 (stereo not drawn)	< 50 nM	< 1000 nM	< 1000 nM
COc1ccccc1-c1n[nH]c2ncc(-c3cncc(C(O)C(=O)N(C)C)c3)cc12 (stereo not drawn)	< 50 nM	< 1000 nM	< 1000 nM
COc1ccccc1-c1n[nH]c2ncc(-c3cccc(C(O)c4ncccc4C)c3)cc12 (stereo not drawn)	< 50 nM	< 1000 nM	< 1000 nM
COc1ccccc1-c1c[nH]c2ncc(-c3cc(C(C#N)C(=O)N(C)C)ncn3)cc12 (stereo not drawn)	> 500 nM	> 1000 nM	> 1000 nM
CC[C@@H]1OCO[C@H]1c1cccc(-c2cnc3[nH]nc(-c4ccccc4OC)c3c2)c1	< 50 nM	> 1000 nM	> 1000 nM
COc1ccccc1-c1n[nH]c2ncc(-c3cccc([C@@H](O)[C@H](O)C(C)C)c3)cc12	< 50 nM	< 1000 nM	< 1000 nM
COc1ccccc1-c1n[nH]c2ncc(-c3cccc([C@H](O)[C@H](O)C(C)C)c3)cc12	< 50 nM	< 1000 nM	< 1000 nM
